Reference: patent US9616062B2, “Cyclin dependent kinase inhibitors and methods of use” (priority 2009, dated 2017)

Experiments:
[1] = test system: primary human renal proximal tubule epithelial cells; test: Protection from etoposide-induced cell death, CellTiter-Glo on day 7; format: cell-based; conditions: 16 h pretreatment, 2.5 μM etoposide 8 h, 7 days recovery
Description: FIG. 5: CDK4/6 inhibition protects primary human renal proximal tubule epithelial cells from etoposide-induced cell death. PD0332991 inhibits chemotherapy-induced cytotoxicity in a cdk4/6 dependent manner. Primary human renal proximal tubule epithelial cells were incubated with 30 nM or 100 nM PD0332991 for 16 hours. Etoposide (Etop, 2.5 μM) was added for 8 hours. Following incubation, the media was replaced with fresh media and the cells were incubated for an additional 7 days. On day 7, cell proliferation was assessed using CellTiter-Glo® (Promega, Madison, Wis., United States of America). Error bars show +/−standard deviation.
Primary normal human renal proximal epithelial cells (American Type Culture Collection (ATCC), Manassas, Va., United States of America) were cultured in renal epithelial cell basal media supplemented with renal epithelial cell growth kit according to the manufacturer's recommendations. […] For the γH2AX assay, cells were fixed, permeabilized, and stained with anti-γH2AX as per γH2AX Flow Kit (Millipore, Billerica, Mass., United States of America). γH2AX levels were assessed by flow cytometry. Cell proliferation was assessed by seeding 1×10^3 cells per well in a 96-well tissue culture plate in 100 μL of growth medium. […] 100 μL of TOXILIGHT™ reagent is added and incubated for 5 minutes and read in a luminometer at 1 second/well. […]

[2] = test system: H417 small cell lung cancer cell line (intact RB); test: SCLC cell proliferation, WST-1, RB-intact line; format: cell-based; conditions: 100 nM
Description: FIG. 8: CDK4/6 inhibition potentiates proliferation of Rb deficient cells. […] Cell proliferation was assessed using WST-1 reagent. Each data point represents the mean of four replicates +/−SEM. CDK4/6 inhibition increases cell proliferation of RB-deficient cell lines.
Primary normal human renal proximal epithelial cells (American Type Culture Collection (ATCC), Manassas, Va., United States of America) were cultured in renal epithelial cell basal media supplemented with renal epithelial cell growth kit according to the manufacturer's recommendations. […] For the γH2AX assay, cells were fixed, permeabilized, and stained with anti-γH2AX as per γH2AX Flow Kit (Millipore, Billerica, Mass., United States of America). γH2AX levels were assessed by flow cytometry. Cell proliferation was assessed by seeding 1×10^3 cells per well in a 96-well tissue culture plate in 100 μL of growth medium. […] At the end of the recovery period, cell number was quantified using CellTiter-Glo® (Promega, Fitchburg, Wis., United States of America) or WST-1 reagent (TaKaRa Bio USA, Madison, Wis., United States of America). Cellular cytotoxicity was assessed using the TOXILIGHT™ Bioassay kit (Lonza, Basel, Switzerland) which measures cytolysis by quantifying the release of Adenylate Kinase into the culture media. […] 100 μL of TOXILIGHT™ reagent is added and incubated for 5 minutes and read in a luminometer at 1 second/well. […]

[3] = test system: primary human renal proximal tubule epithelial cells; test: Cell cycle analysis (propidium iodide, flow cytometry); format: cell-based; conditions: 16 hours
Description: (§1) Representative histograms of cell cycle analysis of Primary human renal proximal tubule epithelial cells treated with varying concentrations of PD0332991 for 16 hours. Cells were harvested, fixed, stained, and analyzed by flow cytometry. Data was fitted using Mod-Fit™ software from Verity (Verity Software House, Topsham, Me., United States of America).
as §1, with “Cell” for “Representative histograms of cell”, “America). Corresponding % of cells in G1 (diamonds), G2/M (squares) and S (triangles) are shown on the graph.” for “America).”
Primary normal human renal proximal epithelial cells (American Type Culture Collection (ATCC), Manassas, Va., United States of America) were cultured in renal epithelial cell basal media supplemented with renal epithelial cell growth kit according to the manufacturer's recommendations. […] For the γH2AX assay, cells were fixed, permeabilized, and stained with anti-γH2AX as per γH2AX Flow Kit (Millipore, Billerica, Mass., United States of America). γH2AX levels were assessed by flow cytometry. Cell proliferation was assessed by seeding 1×10^3 cells per well in a 96-well tissue culture plate in 100 μL of growth medium. […]

[4] = test system: murine memory and naive T cells; test: Homeostatic T cell proliferation in mice (BrdU incorporation, Ki67); format: in vivo, mouse
Description: FIG. 11A: Acute inhibition of CDK4/6 selectively suppresses memory T cell homeostatic proliferation in mice. Mice were treated with PD0332991 (150 mg/kg by oral gavage). Proliferation of T-cells were assessed using BrdU and flow cytometry.
Animals were treated with CDK4/6 inhibitor (PD0332991, open bars) or vehicle (shaded bars) for 24 hours and euthanized. Splenocytes were isolated and stained for B and T cell markers. After gating on appropriate populations, Ki67 staining was performed as an indicator of proliferation and S-phase. Error bars show +/−SEM.
Acute, pharmacologic inhibition of CDK4/6 suppresses lymphocyte proliferation with the most pronounced effect on memory T cell homeostatic proliferation and germinal center formation in mice. To determine whether inhibiting CDK4/6 affects memory cell generation and maintenance, mice were treated with selective CDK4/6 inhibitors, PD 0332991 or an unrelated selective CDK4/6 inhibitor, 2BrIC. 2BrIC was synthesized by OTAVA Chemicals (Kiev, Ukraine) and can be prepared according to methods described in Zhu et al., J. Med. Chem. 46, 2027-2030 (2003).

## CC(=O)c1c(C)c2cnc(Nc3ccc(N4CCNCC4)cn3)nc2n(C2CCCC2)c1=O [PD0332991, 6-acetyl-8-cyclopentyl-5-methyl-2-(5-piperazin-1-yl-pyridin-2-ylamino)-8H-pyrido-[2,3-d]-pyrimidin-7-one]
[1]
  protection from etoposide-induced cell death: protection from etoposide induced cell death
[2]
  cell proliferation (WST-1) vs DMSO: decreased
[3]; 0, 10 nM-1 uM
  cell cycle arrest (G0/G1, G2/M, S fractions): induces a G1 arrest
[3]; varying concentrations
  cytotoxicity during G1 arrest: without evidence of cytotoxicity
[4]; 150 mg/kg by oral gavage
  in vivo BrdU incorporation of CD4+ and CD8+ murine T cells: greatest effects seen in the CD44+CD25+ memory cells
[4]; murine cells, acute inhibition
  homeostatic proliferation of memory vs naive T cells (BrdU incorporation, Ki67 expression): more significant decrease in homeostatic proliferation of memory T cells than naive T cells
